# According to US20200392107A1, “CYCLIC AMINE DERIVATIVE AND MEDICAL USE THEREOF” (Toray Industries, Inc., priority 2018, published 2020):
# Columns and labels:
# [1] = tested on: IL-17 production in mouse splenocytes; assay: Suppressive effect on IL-17 production by IL-23 stimulation in mouse splenocytes; assay type: cell-based; details: Splenocyte, 72 h, at 5 μmol/L of the test compound, human IL-23 10 ng/mL, cultured 3 days, read-out: IL-17 production inhibition rate (%)
# Procedure: Using mouse splenocytes, the suppressive effect of the cyclic amine derivative (I) or a pharmacologically acceptable salt thereof on IL-17 production by IL-23 stimulation was evaluated by a partially modified method mentioned in The Journal of Biological Chemistry, 2003, Vol. 278, No. 3, p. 1910-1914.
# A single cell suspension was prepared from the spleen of C57BL/6J mice (male or female, 6 to 30 weeks old) (Charles River Laboratories Japan, Inc. or CLEA Japan, Inc.) and splenocytes were prepared using Histopaque-1083 (Sigma-Aldrich Japan). The culture medium was used by adding 10% FBS (Gibco), 50 U/mL of penicillin-50 μg/mL of streptomycin (Gibco), 50 μmol/L of 2-mercaptoethanol (Gibco), and 100 U/mL of human IL-2 (Cell Science & Technology Institute, Inc.) to RPMI1640 medium (Gibco). A test compound was dissolved in DMSO and then diluted with the culture medium to have a final concentration of DMSO of 0.1% before use. Splenocytes (3×10^5 cells/well) prepared in the culture medium were seeded in wells of a 96-well flat-bottom plate (Corning Incorporated), the test compound and 10 ng/mL of human IL-23 (R & D systems, Inc.) were added thereto, and the cells were cultured at 37° C. under 5% CO2 for 3 days. A well without addition of human IL-23 and without addition of the test compound and a well with addition of human IL-23 and without addition of the test compound were prepared. After completion of the culture, the culture supernatant was collected and the IL-17 production amount in the supernatant was determined by ELISA method (R & D systems, Inc.).
# The IL-17 production inhibition rate (%) was calculated from Formula (2).
# IL-17 production inhibition rate (%)=(1−((IL-17 production amount with addition of IL-23 and with addition of the test compound)−(IL-17 production amount without addition of IL-23 and without addition of the test compound))/((IL-17 production amount with addition of IL-23 and without addition of the test compound)−(IL-17 production amount without addition of IL-23 and without addition of the test compound)))×100 (2).
# [2] = biological target: T1, RORγ-LBD (GST-fused ligand-binding domain of RORγ) / coactivator TRAP220/DRIP-2 (Homo sapiens, UniProt P51449); assay: Inhibitory effect on RORγ-coactivator binding (LanthaScreen TR-FRET RORγ Coactivator Assay); assay type: biochemical; details: at 33 μmol/L of the test compound; read-out: RORγ-coactivator binding inhibition rate (%)
# T1 construct: purchased Invitrogen
# T1 sequence (P51449 269-508 limits assumed): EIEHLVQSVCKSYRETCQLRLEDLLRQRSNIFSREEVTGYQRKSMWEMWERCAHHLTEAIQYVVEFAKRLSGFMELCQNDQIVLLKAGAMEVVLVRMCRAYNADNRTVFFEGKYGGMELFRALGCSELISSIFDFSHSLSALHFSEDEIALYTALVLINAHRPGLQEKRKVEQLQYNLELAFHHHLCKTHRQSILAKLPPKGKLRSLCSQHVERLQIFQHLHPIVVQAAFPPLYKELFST
# Procedure: The inhibitory effect of the cyclic amine derivative (I) or a pharmacologically acceptable salt thereof on the binding between a ligand-binding domain of RORγ (hereinafter referred to as RORγ-LBD) and a coactivator was evaluated using Invitrogen's LanthaScreen™ TR-FRET Retinoid-Related Orphan Receptor (ROR) gamma Coactivator Assay kit utilizing time-resolved fluorescence energy transfer (TR-FRET).
# A test compound was dissolved in DMSO and diluted with TR-FRET Coregulator Buffer D (Invitrogen) containing 5 mmol/L of DTT to have a final DMSO concentration of 1% before use. To each well of a 384-well black plate (Corning Inc.), 4 nmol/L of GST-fused RORγ-LBD (Invitrogen) diluted with the buffer mentioned above and the test compound were added. A well without addition of the test compound and without addition of GST-fused RORγ-LBD (background) and a well without addition of the test compound and with addition of GST-fused RORγ-LBD (control) were prepared. Next, 150 nmol/L of fluorescein-labeled TRAP220/DRIP-2 (Invitrogen) diluted with the buffer mentioned above and 32 nmol/L of terbium-labeled anti-GST antibody (Invitrogen) were added to each well. After incubating the plate at room temperature for 16 to 24 hours, the fluorescence at 495 nm and 520 nm when excited at 320 nm was measured for each well and the ratio (fluorescence value at 520 nm/fluorescence value at 495 nm) was calculated.
# The fold change with addition of the test compound (ratio with addition of the test compound/ratio of the background), the fold change of the control (ratio of the control/ratio of the background), and the fold change of the background (ratio of the background/ratio of the background) were calculated, and then the inhibition rate of binding between RORγ-LBD and a coactivator (hereinafter referred to as RORγ-coactivator binding inhibition rate) (%) was calculated from Formula (1):
# RORγ-coactivator binding inhibition rate (%)=(1−((Fold change with addition of the test compound)−(Fold change of the background))/((Fold change of the control)−(Fold change of the background)))×100 (1).
inhibition at 33 µM [2] [%],Compound,inhibition at 5 µM [1] [%]
99.8,"CC(=O)N1CCCCC1C(=O)Nc1cc(Cl)c2c(c1)CCN2Cc1ccc(C(F)(F)F)cc1 (centres unmarked) [Example 10, 1-acetyl-N-(7-chloro-1-(4-(trifluoromethyl)benzyl)indolin-5-yl)piperidine-2-carboxamide]",99.5
99.5,"CC(=O)N1CCCC[C@@H]1C(=O)Nc1cc(Cl)c2c(c1)CCN(Cc1ccc(C(F)(F)F)cc1)C2 [Example 3, (R)-1-acetyl-N-(8-chloro-2-(4-(trifluoromethyl)benzyl)-1,2,3,4-tetrahydroisoquinolin-6-yl)piperidine-2-carboxamide]",99.7
85.2,"CC(=O)N1CCCC[C@@H]1C(=O)Nc1cc(Cl)c2c(c1)CCN2Cc1ccccc1C(F)(F)F [Example 6, (R)-1-acetyl-N-(7-chloro-1-(2-(trifluoromethyl)benzyl)indolin-5-yl)piperidine-2-carboxamide]",91.6
87.9,"CC(=O)N1CCCC[C@@H]1C(=O)Nc1cc(Cl)c2c(c1)CCN2Cc1cccc(C(F)(F)F)c1 [Example 5, (R)-1-acetyl-N-(7-chloro-1-(3-(trifluoromethyl)benzyl)indolin-5-yl)piperidine-2-carboxamide]",87.5
99.4,"CC(=O)N1CCCC[C@@H]1C(=O)Nc1cc(Cl)c2c(c1)CCN2Cc1ccc(OC(F)(F)F)cc1 [Example 8, (R)-1-acetyl-N-(7-chloro-1-(4-(trifluoromethoxy)benzyl)in-dolin-5-yl)piperidine-2-carboxamide]",100
94.3,"CC(=O)N1CCCC[C@@H]1C(=O)Nc1ccc2c(c1)CCCN2Cc1ccc(C(F)(F)F)cc1 [Example 2, (R)-1-acetyl-N-(1-(4-(trifluoromethyl)benzyl)-1,2,3,4-tetrahy-droquinolin-6-yl)piperidine-2-carboxamide]",98.4
96,"CC(=O)N1CCCC[C@@H]1C(=O)Nc1cc(Cl)c2c(c1)CCN2CCc1ccc(C(F)(F)F)cc1 [Example 7, (R)-1-acetyl-N-(7-chloro-1-(4-(trifluoromethyl)phenethyl)indolin-5-yl)piperidine-2-carboxamide]",98.6
